Assays:
[1] = biological target: Solute carrier family 22 member 2, OCT2 (Homo sapiens) (UniProt O15244); experiment: Inhibition of OCT2 (unknown origin) expressed in HEK293 cells
[2] = biological target: Solute carrier family 22 member 1, OCT1 (Homo sapiens) (UniProt O15245); experiment: Inhibition of OCT1 (unknown origin) expressed in HEK293 cells
Solute carrier family 22 member 1, OCT1 (Homo sapiens), sequence (O15245 whole entry, looked up): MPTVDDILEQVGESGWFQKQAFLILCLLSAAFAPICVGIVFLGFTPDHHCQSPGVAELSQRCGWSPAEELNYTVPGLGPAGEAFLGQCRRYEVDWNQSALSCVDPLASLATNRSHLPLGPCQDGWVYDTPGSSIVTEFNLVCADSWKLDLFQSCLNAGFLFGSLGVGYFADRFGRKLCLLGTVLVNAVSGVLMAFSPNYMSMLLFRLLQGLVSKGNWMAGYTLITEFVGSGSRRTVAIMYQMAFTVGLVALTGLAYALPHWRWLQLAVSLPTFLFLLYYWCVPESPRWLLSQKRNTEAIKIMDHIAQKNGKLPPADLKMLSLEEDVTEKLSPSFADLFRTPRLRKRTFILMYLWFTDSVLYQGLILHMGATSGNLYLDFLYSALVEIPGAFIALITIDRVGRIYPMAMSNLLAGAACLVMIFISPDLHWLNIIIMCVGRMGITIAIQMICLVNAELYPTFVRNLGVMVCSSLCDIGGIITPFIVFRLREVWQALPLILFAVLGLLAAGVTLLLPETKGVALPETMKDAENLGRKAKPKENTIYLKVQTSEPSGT

Solute carrier family 22 member 2, OCT2 (Homo sapiens), sequence (O15244 whole entry, looked up): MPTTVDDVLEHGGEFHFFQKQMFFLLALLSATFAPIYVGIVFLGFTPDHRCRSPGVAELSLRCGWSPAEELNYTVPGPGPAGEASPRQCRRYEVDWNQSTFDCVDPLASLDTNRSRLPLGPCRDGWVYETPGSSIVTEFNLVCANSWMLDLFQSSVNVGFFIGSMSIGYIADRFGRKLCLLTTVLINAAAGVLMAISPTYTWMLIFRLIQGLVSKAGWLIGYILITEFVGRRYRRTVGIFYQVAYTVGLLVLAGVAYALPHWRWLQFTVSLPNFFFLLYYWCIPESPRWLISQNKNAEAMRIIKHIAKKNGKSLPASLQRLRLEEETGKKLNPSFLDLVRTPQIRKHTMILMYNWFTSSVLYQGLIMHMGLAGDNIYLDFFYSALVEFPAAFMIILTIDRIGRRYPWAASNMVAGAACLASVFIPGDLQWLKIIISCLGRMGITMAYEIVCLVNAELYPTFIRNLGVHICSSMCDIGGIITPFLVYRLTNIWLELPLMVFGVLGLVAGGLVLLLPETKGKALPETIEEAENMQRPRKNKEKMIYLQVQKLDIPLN

- IC50 [1]: > 50 µM
- IC50 [2]: > 50 µM
Structure (SMILES): CCOC(=O)[C@@H](Cc1cn(C)c2ccccc12)NC(=O)[C@@H](N)CC(C)C

Reference: BindingDB's records for doi:10.1016/j.ejmech.2020.112373 (Newlink Genetics, 2020)
